In patent US20210330756A1, “Acetylation of Miro1” (University of South Carolina, priority 2020, published 2021):

System: Miro1-AcK105
Assay: Miro1-AcK105 levels in DRG cultures by immunoblotting and immunofluorescence
Type: cell-based, rat
Excerpt: The three reported acetylation sites for Miro1 in human cell lines K92, K512, and K618 (Choudhary et al., 2009; Lundby et al., 2012) correspond to K105, K525, and K629 in rat Miro1 (FIG. 6 at D). We generated Lys-to-Ala mutants for K105, K525, and K629 to determine if these Miro1 residues are acetylated in neurons (Myc-Miro1K105A , Myc-Miro1K525A , and […]; FIG. 6 at D). […] To more definitively assess acetylation of K105, we used acetylated Miro1 peptides to generate an anti-Miro1-AcK105 antibody.
For immunoblotting, protein lysates or immunoprecipitates were denatured by boiling in Laemmli sample buffer, fractionated by SDS-PAGE, and transferred to nitrocellulose membranes. Blots were blocked for 1 h at room temperature with 5% nonfat dry milk in TBS with 0.1% Tween 20 (TBST). Primary antibodies diluted in 5% BSA in TBST were added to the membranes and incubated overnight at 4° C. with rocking. Primary antibodies consisted of rabbit anti-Myc (1:2,000; Cell Signaling; 71D10), rabbit anti-RHOT1 antibody (1:1,000; Aviva Systems Biology; ARP44817 P050), rabbit anti-HDAC6 antibody (1:2,000; Cell Signaling; 7558), rabbit anti-ERK1 (1:5,000; Abcam; ab32537), and affinity-purified custom rabbit anti-Miro1-AcK105 (1:2,500; Twiss laboratory, see above) antibodies. For the anti-Miro1-AcK105 antibody, preimmune and test-bleed sera were used at 1:1,000 dilutions to initially evaluate for specificity. After washing in TBST, blots were incubated with HRP-conjugated anti-rabbit IgG antibodies (1:5,000; Jackson Immunoresearch) diluted in blocking buffer for 1 h at room temperature. Signals were detected using ECL Prime (GE Healthcare) after extensive washing.
Standard immunofluorescence methods were used as previously described (Merianda et al., 2009) at room temperature unless specified otherwise. Briefly, coverslips were rinsed in PBS, fixed in buffered 3.7% PFA for 15-20 min, and washed twice in PBS. Cultures were permeabilized with PBS plus 0.3% Triton X-100 (PBST; Sigma-Aldrich) for 5 min. Coverslips were blocked in 2% BSA and 2% FBS (Gemini) for 1 h. […]

SMILES | anti-Miro1-AcK105 immunoblot signal (DRG lysates ± 10 μM TubA) | Miro1-AcK105 overall by immunoblotting (10 μg/ml aggrecan or 1 μM thapsigargin, 4 h) | Miro1-AcK105 in axons by immunofluorescence (aggrecan- or thapsigargin-treated cultures)
CN1CCc2c(c3ccccc3n2Cc2ccc(C(=O)NO)cc2)C1 [TubA, tubastatin] | clear increase in signal | – | –
C/C=C(/C)C(=O)O[C@H]1C(C)=C2[C@H]([C@@H]1OC(=O)CCCCCCC)[C@@](C)(OC(C)=O)C[C@H](OC(=O)CCC)[C@@]1(O)[C@H]2OC(=O)[C@@]1(C)O [thapsigargin] | – | decreased Miro1-AcK105 | decreased Miro1-AcK105
